In PubChem BioAssay AID330 (DTP/NCI, 2004):
Where “and” joins values, the source holds several entries; their conditions need not be identical. Equal entries are not always repeated. Toxic doses and inconclusive results are not listed. How the source made its calls: active means survival T/C of 150% or more; inactive means T/C below 125% in these data. Bridge positions count the residues as written; N and C are the ends. Square brackets hold non-standard residues; d marks the D form. Peptide text beside a SMILES is read from it. * marks the point of attachment. Cbz = O=C(OCc1ccccc1)*; Ava = NCCCCC(=O)O

Tested on: P388 leukemia ip, CD2F1 mice, survival T/C
Assay: NCI In Vivo Anticancer Drug Screen. Data for tumor model P388 Leukemia (intraperitoneal) in CD2F1 (CDF1) mice
Details: endpoint: median survival time, higher = longer survival
Outline: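 Mice carrying the transplanted tumor received test compound or vehicle. Survival was recorded in each group, and the value is the treated-group measurement divided by that of the vehicle-treated control group.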

[1] = dose: 100.0 mg/kg/injection, schedule: Q01DX001 (ip), vehicle: Klucel (hydroxypropylcellulose) (HPC)
[2] = dose: 200.0 mg/kg/injection, schedule: Q01DX001 (ip), vehicle: Klucel (hydroxypropylcellulose) (HPC)
[3] = dose: 400.0 mg/kg/injection, schedule: Q01DX001 (ip), vehicle: Klucel (hydroxypropylcellulose) (HPC)
[4] = dose: 50.0 mg/kg/injection, schedule: Q01DX005 (ip), vehicle: saline with Tween-80
[5] = dose: 100.0 mg/kg/injection, schedule: Q01DX005 (ip), vehicle: saline with Tween-80
[6] = dose: 200.0 mg/kg/injection, schedule: Q01DX005 (ip), vehicle: saline with Tween-80
[7] = dose: 12.5 mg/kg/injection, schedule: Q01DX009 (ip), vehicle: distilled water + Tween-80
[8] = dose: 25.0 mg/kg/injection, schedule: Q01DX009 (ip), vehicle: distilled water + Tween-80
[9] = dose: 50.0 mg/kg/injection, schedule: Q01DX009 (ip), vehicle: distilled water + Tween-80
[10] = dose: 100.0 mg/kg/injection, schedule: Q01DX009 (ip), vehicle: saline
[11] = dose: 50.0 mg/kg/injection, schedule: Q01DX005 (ip), vehicle: Klucel (hydroxypropylcellulose) (HPC)
[12] = dose: 100.0 mg/kg/injection, schedule: Q01DX005 (ip), vehicle: Klucel (hydroxypropylcellulose) (HPC)
[13] = dose: 200.0 mg/kg/injection, schedule: Q01DX005 (ip), vehicle: Klucel (hydroxypropylcellulose) (HPC)
[14] = dose: 100.0 mg/kg/injection, schedule: Q04DX003 (ip), vehicle: Klucel (hydroxypropylcellulose) (HPC)
[15] = dose: 25.0 mg/kg/injection, schedule: Q01DX009 (ip), vehicle: saline with Tween-80
[16] = dose: 50.0 mg/kg/injection, schedule: Q01DX009 (ip), vehicle: saline with Tween-80
[17] = dose: 100.0 mg/kg/injection, schedule: Q01DX009 (ip), vehicle: saline with Tween-80
[18] = dose: 200.0 mg/kg/injection, schedule: Q01DX009 (ip), vehicle: saline with Tween-80

Measured: T/C

O=C1C2CCC(N1c1ccc(F)cc1)n1c(=O)n(-c3ccccc3)c(=O)n12 (centres undefined)
inactive: [1] 104 % of control | [2] 94 % of control | [3] 100 % of control

O=C1c2c(O)cc(O)cc2OC(c2ccc(O)cc2)C1O (centres undefined)
inactive: dose: 9.75 mg/kg/injection, schedule: Q01DX009 (ip), vehicle: saline 100 % of control | dose: 19.5 mg/kg/injection, schedule: Q01DX009 (ip), vehicle: saline 101 % of control | dose: 39.0 mg/kg/injection, schedule: Q01DX009 (ip), vehicle: saline 102 % of control

COc1ccc2c(ccc[n+]2C)c1
inactive: dose: 5.0 mg/kg/injection, schedule: Q01DX009 (ip), vehicle: saline with Tween-80 100 % of control | dose: 10.0 mg/kg/injection, schedule: Q01DX009 (ip), vehicle: saline with Tween-80 110 % of control | dose: 20.0 mg/kg/injection, schedule: Q01DX009 (ip), vehicle: saline with Tween-80 110 % of control

CCCCCCCCCCCn1nnnc1N
inactive: [4] 102 % of control | [5] 93 % of control | [6] 96 % of control

CCNC(=O)C(CCO)NC(=O)OCc1ccccc1 (centres undefined)
inactive: [7] 118 % of control | [8] 101 % of control | [9] 110 % of control

Cc1c(O)cccc1O
inactive: [10] 105 % of control

Cc1c(C)n(C)c(=S)n(C)c1=S
inactive: [11] 97 % of control | [12] 99 % of control | [13] 97 % of control

C=C(C)C1CCC=CC(=O)C1 (centres undefined)
inactive: [14] 107 % of control | dose: 200.0 mg/kg/injection, schedule: Q04DX003 (ip), vehicle: Klucel (hydroxypropylcellulose) (HPC) 116 % of control

O=C1C2CCCCC2C1(Cl)Cl (centres undefined)
inactive: [15] 103 % of control | [16] 99 % of control | [17] 118 % of control

O=C(COc1ccc([N+](=O)[O-])cc1)NN1C(=O)c2ccc([N+](=O)[O-])cc2C1=O
inactive: dose: 60.0 mg/kg/injection, schedule: Q01DX005 (ip), vehicle: Klucel (hydroxypropylcellulose) (HPC) 92 % of control | dose: 120.0 mg/kg/injection, schedule: Q01DX005 (ip), vehicle: Klucel (hydroxypropylcellulose) (HPC) 91 % of control | dose: 240.0 mg/kg/injection, schedule: Q01DX005 (ip), vehicle: Klucel (hydroxypropylcellulose) (HPC) 87 % of control

O=C1OCC(C(=O)N2Cc3cc4ccccc4nc3C2)C1CO (centres undefined)
inactive: [17] 94 % of control | [18] 115 % of control | dose: 400.0 mg/kg/injection, schedule: Q01DX009 (ip), vehicle: saline with Tween-80 105 % of control

O=C1OC(=O)C2CCC12 (centres undefined)
inactive: [16] 106 % of control | dose: 60.0 mg/kg/injection, schedule: Q01DX005 (ip), vehicle: saline 93 % of control | [17] 106 % of control | dose: 120.0 mg/kg/injection, schedule: Q01DX005 (ip), vehicle: saline 89 % of control | [18] 97 % of control | dose: 240.0 mg/kg/injection, schedule: Q01DX005 (ip), vehicle: saline 86 % of control

COc1cc(C=NCc2ccccc2)cc(OC)c1O
inactive: dose: 50.0 mg/kg/injection, schedule: Q04DX003 (ip), vehicle: saline with Tween-80 103 % of control | dose: 200.0 mg/kg/injection, schedule: Q04DX003 (ip), vehicle: saline with Tween-80 97 % of control | dose: 400.0 mg/kg/injection, schedule: Q04DX003 (ip), vehicle: saline with Tween-80 97 % of control

O=C(Oc1ccccc1)OC1CCN(C(=O)Oc2ccccc2)CC1
inactive: dose: 50.0 mg/kg/injection, schedule: Q01DX001 (ip), vehicle: Klucel (hydroxypropylcellulose) (HPC) 100 % of control | [1] 102 % of control | [2] 100 % of control | [3] 100 % of control

CC1NC(=O)C(NC(=O)OCc2ccccc2)COC(=O)C(C(C)C)NC(=O)CCCCNC1=O (centres undefined) (Cbz-SA[Ava]V; ester 1-C; configuration not given here)
inactive: dose: 100.0 mg/kg/injection, schedule: Q04DX002 (ip), vehicle: saline with Tween-80 100 % of control | dose: 200.0 mg/kg/injection, schedule: Q04DX002 (ip), vehicle: saline with Tween-80 104 % of control | dose: 400.0 mg/kg/injection, schedule: Q04DX002 (ip), vehicle: saline with Tween-80 104 % of control

O=S1(=O)OCc2ccccc21
inactive: dose: 12.5 mg/kg/injection, schedule: Q01DX009 (ip), vehicle: Klucel (hydroxypropylcellulose) (HPC) 98 % of control | dose: 25.0 mg/kg/injection, schedule: Q01DX009 (ip), vehicle: Klucel (hydroxypropylcellulose) (HPC) 100 % of control | dose: 50.0 mg/kg/injection, schedule: Q01DX009 (ip), vehicle: Klucel (hydroxypropylcellulose) (HPC) 107 % of control | dose: 100.0 mg/kg/injection, schedule: Q01DX009 (ip), vehicle: Klucel (hydroxypropylcellulose) (HPC) 117 % of control

O=C(OC1C2C=CC1C1C3CCC(c4ccccc43)C21)c1ccc([N+](=O)[O-])cc1[N+](=O)[O-] (centres undefined)
inactive: dose: 100.0 mg/kg/injection, schedule: Q04DX002 (ip), vehicle: saline 103 % of control | dose: 200.0 mg/kg/injection, schedule: Q04DX002 (ip), vehicle: saline 99 % of control | dose: 400.0 mg/kg/injection, schedule: Q04DX002 (ip), vehicle: saline 100 % of control

COc1cccc(C=O)c1OS(=O)(=O)c1ccc(C)cc1
inactive: dose: 25.0 mg/kg/injection, schedule: Q01DX009 (ip), vehicle: other 101 % of control | dose: 50.0 mg/kg/injection, schedule: Q01DX009 (ip), vehicle: other 108 % of control | dose: 100.0 mg/kg/injection, schedule: Q01DX009 (ip), vehicle: other 108 % of control

O=C(O)CCCCCCCCC#CC#CCO
inactive: [4] 101 % of control | [5] 99 % of control | [6] 95 % of control

O=C(Nc1ccc(NC(=O)C(Cl)(Cl)Cl)cc1)C(Cl)(Cl)Cl
inactive: [15] 105 % of control | [16] 91 % of control | [17] 92 % of control | [18] 99 % of control

CC(C)(C)OC(=O)C(Cc1cnc2nc(N)nc(N)c2n1)C(=O)OC(C)(C)C
inactive: dose: 3.13 mg/kg/injection, schedule: Q01DX009 (ip), vehicle: distilled water + Tween-80 103 % of control | dose: 6.25 mg/kg/injection, schedule: Q01DX009 (ip), vehicle: distilled water + Tween-80 98 % of control | [7] 95 % of control | [8] 95 % of control | [9] 93 % of control

C/C=C(\C)c1cc(OC)c(C)c(=O)o1
inactive: dose: 25.0 mg/kg/injection, schedule: Q04DX003 (ip), vehicle: Klucel (hydroxypropylcellulose) (HPC) 118 % of control | dose: 50.0 mg/kg/injection, schedule: Q04DX003 (ip), vehicle: Klucel (hydroxypropylcellulose) (HPC) 116 % of control | [14] 114 % of control

CCCCOCC(=O)OC
inactive: [16] 102 % of control | [17] 102 % of control | [18] 107 % of control

CCN(CC)CCOC(C)(C#CC(C)(O)CC)CC (centres undefined)
inactive: [4] 100 % of control | [5] 106 % of control

COc1nc(NCC(C)O)nc(NCC(C)O)n1 (centres undefined)
inactive: dose: 50.0 mg/kg/injection, schedule: Q01DX009 (ip), vehicle: saline 100 % of control | [10] 89 % of control | dose: 200.0 mg/kg/injection, schedule: Q01DX009 (ip), vehicle: saline 99 % of control

COC1=C(OC)C(=O)C(C/C=C(\C)CC/C=C(\C)CC/C=C(\C)CC/C=C(\C)CC/C=C(\C)CC/C=C(\C)CC/C=C(\C)CC/C=C(\C)CC/C=C(\C)CCC=C(C)C)=C(C)C1=O
inactive: dose: 3.13 mg/kg/injection, schedule: Q01DX009 (ip), vehicle: saline with Tween-80 90 % of control and 96 % of control | dose: 6.25 mg/kg/injection, schedule: Q01DX009 (ip), vehicle: saline with Tween-80 86 % of control and 93 % of control | dose: 12.5 mg/kg/injection, schedule: Q01DX009 (ip), vehicle: saline with Tween-80 96 % of control | [15] 86 % of control and 87 % of control | [16] 90 % of control | [17] 86 % of control and 87 % of control

Cc1cc(=O)c(C(=O)NC(=O)c2ccccn2)c(C)o1
inactive: [11] 101 % of control | [12] 101 % of control | [13] 107 % of control

COc1ccc(OC)c2c(=O)cc(C)[nH]c12
inactive: dose: 16.5 mg/kg/injection, schedule: Q01DX009 (ip), vehicle: saline with Tween-80 107 % of control and 112 % of control | [15] 107 % of control and 111 % of control and 121 % of control | dose: 37.5 mg/kg/injection, schedule: Q01DX009 (ip), vehicle: saline with Tween-80 113 % of control and 124 % of control | [16] 114 % of control | [17] 107 % of control | [18] 107 % of control
